Patent US20260217983A1, “SULFONIUM SALT PHOTOINITIATORS AND METHODS OF LED CURING A COMPOSITION WITH SAID SULFONIUM SALT PHOTOINITIATORS” (ARKEMA FRANCE, priority 2022, published 2026)

How the values were obtained:
[1] = Belt curing performance (thumb-twist depth cure) in UViCure S105E resin; conditions: 24 μm film, under air, PI 2 wt %
Method: (§1) The photoinitiators were dissolved either in neat UViCure S105E resin or a hybrid acrylate/epoxy resin (prepared by mixing 60 wt parts UViCure S105E, 15 wt parts UViCure S130 and 25 wt parts SR492; all product are available from Sartomer). Formulations were prepared by combining all materials in the given proportions and then stirring at 30-40° C. until the samples were fully homogeneous; the formulations were then allowed to cool to room temperature. For all experiments, the formulations were cured on Leneta Form 3N-31 gloss finish paper at 6 μm and 24 μm film thickness using a belt-cure instrument; the films were prepared using a K-bar. All films were then cured under an LED lamp at a given belt speed. ‘Depth cure’ for each formulation was assessed using the ‘thumb-twist’ test (where no visible mark is made when a thumb is pressed down firmly onto the coating with a twisting motion), and from the belt speed; the calculated cure speed (in m/min) is given.

[2] = Belt curing performance (thumb-twist depth cure) in hybrid acrylate/epoxy resin; conditions: for Cure speed in hybrid acrylate/epoxy resin: 24 μm film, under air, PI 2 wt %
Method: as §1

[3] = UV Vis spectra measurement; type: physicochemical; conditions: order 5>1>2 (comp.) ~4 (comp.); 10 ppm in acetonitrile
Source text: UV-Vis spectrum of each sample was taken with a Shimadzu UV1800 spectrophotometer using a 1.0 cm path of cuvette quartz cell in accordance with ASTM E169-04, and scanning the spectrum over the wavelength range of 450 to 200 nm.

[4] = Real time FT-IR curing performance at 405 nm in neat TMPTA; conditions: 20 μm thickness, laminated; for Acrylate Polymerization rate Rp/[M0]*100: LED @405 nm (110 W/cm^2); for Acrylate Final conversion: LED @405 nm (110 mW/cm^2)
Method: The curing performance of individual products prepared above was assessed using real time FT-IR measurement. The photoinitiators were dissolved either in neat trimethylolpropane triacrylate (TMPTA; available as SR351 from Sartomer) or in a 1:1 (w/w) mixture of TMPTA and UViCure S105 as indicated, applied onto the FT-IR measurement plate, laminated to prevent oxygen inhibition, and irradiated with the indicated LED light source. For the epoxy component, the polymerization rate and final reactive group conversion were determined by monitoring the change of the relevant infrared band near 900 cm^−1 corresponding to an epoxide ring. For the acrylate component, the C═C stretch band near 1625 cm^−1 was used.

[5] = Solubility in propylene carbonate at ambient temperature; type: physicochemical; conditions: 20-25° C.
Method: Solubility of selected sulfonium salts in propylene carbonate at ambient temperature (20-25° C.) was determined.

[6] = FTIR-ATR cure test of hybrid formulations (acrylate, epoxide conversion, 1100 cm^-1 peak growth); conditions: 405 nm; for Epoxide cure compared with Omnicat 550: 0.5% TPO-L, matched with control SC938/CPTX; for Epoxide cure compared with Omnicat 550 / acrylate cure with or without radical photoinitiator: high or low epoxide hybrid systems; for epoxide cure and total cationic cure compared with Omnicat 550 and SC992: in presence or absence of radical photoinitiator
Method: Matrixes: In a 1000 mL of metal can, formulation matrix was charged according to the percentage in Table 12. The 1000-1005 g mixture of each matrix sample was prepared and mixed by mechanical mixer for about 1 hour around 60° C. until the solution became clear. Formulations: In a white max 50 jar from FlackTek Inc., photoinitiator and propylene carbonate were loaded at first, mixed by hand with stainless steel spatula, placed in 60° C. oven for about 1 h, mixed again until it became clear. Then, formulation matrix was charged according to the percentage in one of Table 13 to 21. The […]-52.60 g mixture of each sample was prepared and mixed for 3 minutes at 3000 RPM in Speed Mixer from FleackTec Inc. Then, all jars were placed in 60° C. oven for about 2 h, taken out and immediately mixed for another 2 minutes until the solution became clear.
A Fourier Transform Infrared (FTIR) with an Attenuated Total Reflection (ATR) setup was used. All polymerization rate measurements were performed using Nicolet iS50 FT-IR Spectrometer from Thermo Scientific, equipped with a standard DLaTGS detector. A lamp holder for the ART platform of FTIR unit can be customized and printed from Arkema N3xtDimention® engineered resin N3D-TOUGH784 in order to ensure precisely fit of a 365 nm lamp Accucure ULM-2-365 or a 405 nm lamp Accucure ULM-2-405 from Digital Light Labs. On the bottom of this lamp holder, a dry air channel is built in to allow air uniformly blowing over sample surface, the gas flow rate can be controlled over a rotameter. The LED light was manually triggered by Ultraviolet illumination & Measurement System. LED light exposure can be programed by AccuCure software. For measurement, 25 μL of liquid sample was placed in the center of an ATR crystal. 3 mil of thin film was prepared by a customized coating applicator (3 mil WFM, G1046 from BYK). The LED lamp with holder was place on the top of ART platform. Then FTIR scan was initiated to collect liquid IR spectrum at first. Each IR spectrum of a specific exposure time at 10 mW/cm^2 of LED light were collected. Measurements of acrylate conversion were taken at the peak height under the reference peak around 1727 cm^−1; the acrylate peak of SR833S at approximately 1407 cm^−1, the epoxide peak of UviCure S105 at approximately 790 cm^−1, and the oxetane peak of UViCure S130 at approximately 970 cm^−1 were also measured. Since the ring opening of both epoxide and oxetane generated C—O—C bond, the growth of C—O—C IR peak height at ~1100 cm^−1 was monitored as well. The resulting of peak 1100 cm^−1 growth rate could be calculated to assess total cationic cure speed. Peak heights were determined using the same baseline where a baseline is chosen to be the two lowest points between 600 cm^−1 and 1800 cm^−1. The peak height under the peak and above the baseline was then determined. The integration limits for liquid and the cured sample are not identical but are similar, especially for the reference peak.
The ratios of the acrylate peak height, epoxide peak height, ring opening peak height from both epoxide and oxetane to the reference peak height were determined for both the liquid and the cured samples. Degree of cure or conversion or peak growth rate, expressed as percentage reacted acrylate or epoxide or ring opening of both epoxide and oxetane, was calculated from the equation below: […]
Where Rliq is the peak height ratio of the liquid sample and Rc is the peak height ratio of the LED cured sample. The resulting acrylate and epoxide conversions or C—O—C growth rates were collected and listed in Tables 13 to 21, plotted in FIG. 1 to 8 and FIG. 10.

[7] = Working-curve measurement (Ec, Dp) on 405 nm DLP printers; conditions: at lower concentration
Method: Working-curves were printed on the 405 nm~3 mW/cm^2 Flashforge Hunter DLP printer or on the 405 nm~12 mW/cm^2 B9 Core 550 DLP printer from B9Creation. Various energy dosages were irradiated in sections of the build area (without a build platform installed), resulting in individual squares or thin films being cured. The thickness of the individual thin films were measured with a low force digital caliper+comparator stand from Mitutoyo to determine the cure depths. A plot of the cure depths vs. the logarithm of energy dosages was used to determine the critical exposure (Ec, mJ/cm^2) and penetration depth (Dp, mils).

[8] = LED 365 nm, 100% intensity (=70.1 mJ/cm^2), belt speed 40 m/min
[9] = LED 395 nm, 40 m/min, 100% intensity (=164.5 mJ/cm^2)
[10] = LED 395 nm, 80 m/min, 50% intensity (=36.9 mJ/cm^2)

SMILES	Cure speed in UViCure S105E resin [1, 8]	Cure speed in UViCure S105E resin [1, 9]	Cure speed in hybrid acrylate/epoxy resin [2, 8]	Cure speed in hybrid acrylate/epoxy resin [2, 10]	UV absorption at 405 nm [3]	Acrylate Polymerization rate Rp/[M0]*100 [4]	Acrylate Final conversion [4]	Solubility in propylene carbonate [5]	Epoxide cure compared with Omnicat 550 [6]	acrylate cure with or without radical photoinitiator [6]	epoxide cure and total cationic cure compared with Omnicat 550 and SC992 ([6]; hybrid systems)	acrylate cure in presence of BKL or XKm, or without any radical initiator ([6]; hybrid systems, like SC938/CPTX)	belt cure speed compared with photoinitiator 1 ([2]; at 80 m/min in hybrid acrylate/epoxy resin at both 365 nm and 395 nm)	Dp and Ec compared with 4 (comp.) [7]
Cc1ccc([S+](c2ccc(C(=O)c3ccccc3)cc2)c2ccc3sc4ccc(C(C)C)cc4c(=O)c3c2)cc1 (stereo not drawn) [Photoinitiator 2, (4-benzoylphenyl)(4-methylphenyl)[9-oxo-7-(propan-2-yl)-9H-thioxanthen-2-yl]sulfonium Hexafluorophosphate]	4.6 m/min	10.0 m/min	11.1 m/min	16.4 m/min	much higher than Omnicat 550 and SC 992S	4.58 s⁻¹	53%	>48 wt %						
CC(C)c1ccc2sc3ccc(-[s+]4c5ccccc5c(=O)c5cc(C(C)C)ccc54)cc3c(=O)c2c1 (stereo not drawn) [Photoinitiator 1, 9-oxo-10-[9-oxo-7-(propan-2-yl)-9H-thioxanthen-2-yl]-2-(propan-2-yl)-9H-thioxanthen-10-ium hexafluorophosphate]	12.2 m/min	20.0 m/min	20.0 m/min	40.0 m/min	much higher than Omnicat 550 and SC 992S	3.43 s⁻¹	38%	>50 wt %	better than that from Omnicat 550					
CCc1cc(CC)c2sc3ccc([S+](c4ccc(C)cc4)c4ccc(C(=O)c5ccccc5)cc4)cc3c(=O)c2c1 (stereo not drawn) [Photoinitiator 4, (4-benzoylphenyl)(5,7-diethyl-9-oxo-9H-thioxanthen-2-yl)(4-methylphenyl)sulfonium Hexafluorophosphate]	3.7 m/min	5.2 m/min	17.8 m/min	15.1 m/min	much higher than Omnicat 550 and SC 992S	5.70 s⁻¹	64%	>47 wt %	better than that from Omnicat 550	high acrylate cure	better epoxide cure and total cationic cure than Omnicat 550 and SC992	could cure acrylate very well		
CCCOc1ccc(Cl)c2c(=O)c3cc(-[s+]4c5ccccc5c(=O)c5c(Cl)ccc(OCCC)c54)ccc3sc12 (stereo not drawn) [Photoinitiator 5, 1-chloro-10-(8-chloro-9-oxo-5-propoxy-9H-thioxanthen-2-yl)-9-oxo-4-propoxy-9H-thioxanthen-10-ium Hexafluorophosphate]	13.3 m/min	13.3 m/min	40.0 m/min	80.0 m/min	much higher than Omnicat 550 and SC 992S	2.01 s⁻¹	51%	42 wt %	better than that from Omnicat 550	high acrylate cure	better epoxide cure and total cationic cure than Omnicat 550 and SC992		superior cure speed	lower Op and higher Ec than 4 (comp.)
